Experimental data taken from patent US7304092B1, “Compounds and methods for treating tumors, cancer and hyperproliferative diseases” (Yale University, priority 2002, dated 2007).
“Also recorded” adds a separate entry of the source.

What was measured:
[1] = test system: 32DtetP210Bcr-Abl cells (32D-bcr-abl); assay: Low cell density cell proliferation / cell death assay, bcr-abl dependent cells; format: cell-based, murine; details: for activity (death of 32D-bcr-abl cells) / selectivity (32D-bcr-abl over control cells): result in words; for activity (death of 32D-bcr-abl cells): structure-activity comparison; for selectivity (32D-bcr-abl over control cells): versus control 32D cell line; for activity / selectivity: in words; for inhibition of the 32DtetP210bcrabl cell line: 1 micromolar, FIG. 13, in words
Description: (§1) The acetylenes were prepared by deprotonation of a propiolate (either methyl or tert-butyl) with n-butyllithium and subsequent reaction with an isocyanate (FIG. 4). Modifications may be readily made following the aforementioned schemes. The furan and acetylene libraries were both tested for activity in a cell-based assay where the death of engineered murine myeloid cells (32D-bcr-abl), the survival of which depends on the activity of bcr-abl tyrosine kinase, was sought.
(§2) The biological activity of these compounds was evaluated in two ways, a murine cell line differential proliferation assay and a NCI 60 human carcinoma cell-line growth inhibition and cell death assay. The murine cell death assays were performed using a p210bcrabl transformed 32D murine cell line. […] The NCl assay was performed in the Developmental Therapeutics Program at the National Cancer Institute. This assay measures the inhibition of cell growth and cell death from sixty different human carcinomas.
(§3) The furan and acetylene libraries were both tested for activity in a cell-based assay where the death of engineered murine myeloid cells (32D-bcr-abl), the survival of which is depends on the activity of bcr-abl tyrosine kinase, was sought.
(§4) Low cell density high throughput cell proliferation assay Between 50 and 100 32D and 32DtetP210Bcr-Abl cells in 100 microliters of medium without serum were exposed to the test compound for 15 minutes. An equal volume of 20% serum supplemented tissue culture medium was then added and the cells were inoculated in single well in 32 wells of a 96 well plate. The endpoint of the assay was the fraction of the 32 wells in which a cell pellet was seen to develop which was filled with live cells. This assay is subject to automated screening by a plate reader for the cell pellet. We used this high throughput assay to screen for compounds that suppress the growth of the 32DtetP210Bcr-Abl cell line in the absence of IL-3, but allow the growth of the 32D cell line in the presence of IL-3. Various concentrations of each compound were tested.

32D cells = assay: Low cell density cell proliferation assay, control cell line; format: cell-based, murine; details: for control cells surviving: 100 nM
Description: as §1
as §2, with “carcinomas. Both the acetylene and furan structural cores represent novel chemical entities with no prior reports of biological activity. […] At present, the use of these compounds is to be preferred in the treatment of tumors and cancer.” for “carcinomas.”
as §3, §4

[2] = test system: 60 human carcinoma cell lines; assay: NCI 60 human carcinoma cell-line growth inhibition and cell death assay, whole panel; format: cell-based
Description: as §2, with “carcinomas. Both the acetylene and furan structural cores represent novel chemical entities with no prior reports of biological activity. […] At present, the use of these compounds is to be preferred in the treatment of tumors and cancer.” for “carcinomas.”
(§5) In order to obtain additional information about the behavior of our compounds in cancerous cells, 18 compounds were submitted to and accepted by the NCl for testing on 60 human carcinoma cell lines as set forth in the examples section. This would confirm the activity seen in our cell-based assay and maybe give an insight into the mechanism of action and biological target of the acetylene/furan compounds. […] As a result, K1P was singled out by the NCl for further testing: MTD (Maximum Tolerated Dose) and murine hollow fiber in vivo assay. These are being carried out at the present time, along with testing of furans AN7A and AN7B in the 60 human cancer cell lines. […]

[3] = test system: carcinoma and model carcinoma cell lines; assay: Summary of activity in the cell line assays; format: cell-based; details: in words
Description: as §2, with “carcinomas. Both the acetylene and furan structural cores represent novel chemical entities with no prior reports of biological activity. […] At present, the use of these compounds is to be preferred in the treatment of tumors and cancer.” for “carcinomas.”

leukemia cell lines = assay: NCI 60 human carcinoma cell-line growth inhibition assay, leukemia panel; format: cell-based; details: span over the lines
Description: as §2, with “carcinomas. Both the acetylene and furan structural cores represent novel chemical entities with no prior reports of biological activity. […] At present, the use of these compounds is to be preferred in the treatment of tumors and cancer.” for “carcinomas.”
as §5

IKKBeta = biological target: T1, IKKBeta (Homo sapiens, UniProt O14920); assay: Cell free kinase inhibition assay; format: biochemical
T1 construct: purchased Upstate Biotechnologies, Lake Placid, N.Y
T1 sequence (O14920 1-756): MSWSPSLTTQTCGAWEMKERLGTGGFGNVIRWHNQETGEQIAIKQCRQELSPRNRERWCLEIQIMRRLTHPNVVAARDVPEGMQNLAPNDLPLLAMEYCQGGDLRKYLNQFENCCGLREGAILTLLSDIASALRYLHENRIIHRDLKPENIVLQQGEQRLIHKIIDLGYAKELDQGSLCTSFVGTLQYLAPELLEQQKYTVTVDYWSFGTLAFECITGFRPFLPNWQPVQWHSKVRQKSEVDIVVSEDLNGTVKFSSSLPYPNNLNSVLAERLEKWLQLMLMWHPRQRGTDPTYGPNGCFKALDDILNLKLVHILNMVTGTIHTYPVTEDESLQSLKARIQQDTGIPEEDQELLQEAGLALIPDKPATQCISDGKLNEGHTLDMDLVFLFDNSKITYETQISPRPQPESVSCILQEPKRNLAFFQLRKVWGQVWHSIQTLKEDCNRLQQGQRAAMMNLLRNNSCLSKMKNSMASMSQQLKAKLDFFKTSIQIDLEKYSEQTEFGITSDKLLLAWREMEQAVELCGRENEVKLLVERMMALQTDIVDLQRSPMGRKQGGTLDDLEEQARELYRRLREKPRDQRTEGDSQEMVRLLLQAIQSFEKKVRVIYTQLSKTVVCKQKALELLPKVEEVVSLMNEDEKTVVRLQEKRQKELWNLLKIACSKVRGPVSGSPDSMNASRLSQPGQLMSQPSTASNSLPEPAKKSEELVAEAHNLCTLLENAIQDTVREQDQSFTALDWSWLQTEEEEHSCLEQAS
Description: (§6) Cell Free Kinase Inhibition Assay. A panel of 60 kinases (Upstate Biotechnologies, Lake Placid, N.Y.) were analyzed in in vitro cell free kinase assays.

PKCy = biological target: T2, PKCy (Homo sapiens, UniProt P05129); assay: Cell free kinase inhibition assay; format: biochemical
T2 construct: purchased Upstate Biotechnologies, Lake Placid, N.Y
Description: as §6

Fyn = biological target: T3, Fyn (Homo sapiens, UniProt P06241); assay: Cell free kinase inhibition assay; format: biochemical
T3 construct: purchased Upstate Biotechnologies, Lake Placid, N.Y
Description: as §6

CaMKII = assay: Cell free kinase inhibition assay; format: biochemical
Description: as §6

CaMKIV = biological target: T4, CaMKIV (Homo sapiens, UniProt Q16566); assay: Cell free kinase inhibition assay; format: biochemical
T4 construct: purchased Upstate Biotechnologies, Lake Placid, N.Y
T4 sequence (Q16566 1-473): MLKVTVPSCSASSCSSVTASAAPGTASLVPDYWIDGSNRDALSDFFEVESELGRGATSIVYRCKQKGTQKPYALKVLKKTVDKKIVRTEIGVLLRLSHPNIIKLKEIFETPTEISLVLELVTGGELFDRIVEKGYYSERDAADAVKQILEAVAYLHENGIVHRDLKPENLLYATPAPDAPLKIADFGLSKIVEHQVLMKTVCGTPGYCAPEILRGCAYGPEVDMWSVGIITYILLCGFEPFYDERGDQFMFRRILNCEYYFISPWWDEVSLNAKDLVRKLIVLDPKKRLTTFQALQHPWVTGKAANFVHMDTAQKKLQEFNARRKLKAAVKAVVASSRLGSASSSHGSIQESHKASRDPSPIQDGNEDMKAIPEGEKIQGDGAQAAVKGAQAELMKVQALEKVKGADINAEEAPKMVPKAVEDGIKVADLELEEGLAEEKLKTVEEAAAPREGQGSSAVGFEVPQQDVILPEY
Description: as §6

Lyn = biological target: T5, Lyn (Homo sapiens, UniProt P07948); assay: Cell free kinase inhibition assay; format: biochemical
T5 construct: purchased Upstate Biotechnologies, Lake Placid, N.Y
Description: as §6

CDK2/cyclinA = biological target: T6, CDK2/cyclinA (Homo sapiens, UniProt P24941); assay: Cell free kinase inhibition assay; format: biochemical
T6 construct: purchased Upstate Biotechnologies, Lake Placid, N.Y
Description: as §6

CK1 = assay: Cell free kinase inhibition assay; format: biochemical
Description: as §6

PKCbII = biological target: T7, PKCbII (Homo sapiens, UniProt P05771); assay: Cell free kinase inhibition assay; format: biochemical
T7 construct: purchased Upstate Biotechnologies, Lake Placid, N.Y
Description: as §6

renal cell lines = assay: NCI 60 human carcinoma cell-line growth inhibition assay, renal panel; format: cell-based; details: span over the lines
Description: as §2, with “carcinomas. Both the acetylene and furan structural cores represent novel chemical entities with no prior reports of biological activity. […] At present, the use of these compounds is to be preferred in the treatment of tumors and cancer.” for “carcinomas.”
as §5

T3 sequence (P06241 whole entry, species assumed): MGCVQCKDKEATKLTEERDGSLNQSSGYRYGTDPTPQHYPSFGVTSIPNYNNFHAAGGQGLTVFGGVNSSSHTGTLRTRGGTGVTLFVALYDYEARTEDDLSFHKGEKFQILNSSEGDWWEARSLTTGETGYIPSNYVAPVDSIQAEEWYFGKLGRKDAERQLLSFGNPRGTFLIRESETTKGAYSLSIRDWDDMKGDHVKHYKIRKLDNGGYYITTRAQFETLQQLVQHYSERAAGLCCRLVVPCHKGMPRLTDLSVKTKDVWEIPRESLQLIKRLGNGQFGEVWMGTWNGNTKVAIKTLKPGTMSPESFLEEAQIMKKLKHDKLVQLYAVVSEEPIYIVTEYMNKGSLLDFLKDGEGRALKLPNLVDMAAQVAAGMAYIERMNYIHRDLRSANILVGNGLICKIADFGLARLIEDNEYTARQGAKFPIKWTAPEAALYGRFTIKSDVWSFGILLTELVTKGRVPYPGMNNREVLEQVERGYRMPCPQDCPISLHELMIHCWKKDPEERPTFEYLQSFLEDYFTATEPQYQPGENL
T7 sequence (P05771 1-673 isoform P05771-2): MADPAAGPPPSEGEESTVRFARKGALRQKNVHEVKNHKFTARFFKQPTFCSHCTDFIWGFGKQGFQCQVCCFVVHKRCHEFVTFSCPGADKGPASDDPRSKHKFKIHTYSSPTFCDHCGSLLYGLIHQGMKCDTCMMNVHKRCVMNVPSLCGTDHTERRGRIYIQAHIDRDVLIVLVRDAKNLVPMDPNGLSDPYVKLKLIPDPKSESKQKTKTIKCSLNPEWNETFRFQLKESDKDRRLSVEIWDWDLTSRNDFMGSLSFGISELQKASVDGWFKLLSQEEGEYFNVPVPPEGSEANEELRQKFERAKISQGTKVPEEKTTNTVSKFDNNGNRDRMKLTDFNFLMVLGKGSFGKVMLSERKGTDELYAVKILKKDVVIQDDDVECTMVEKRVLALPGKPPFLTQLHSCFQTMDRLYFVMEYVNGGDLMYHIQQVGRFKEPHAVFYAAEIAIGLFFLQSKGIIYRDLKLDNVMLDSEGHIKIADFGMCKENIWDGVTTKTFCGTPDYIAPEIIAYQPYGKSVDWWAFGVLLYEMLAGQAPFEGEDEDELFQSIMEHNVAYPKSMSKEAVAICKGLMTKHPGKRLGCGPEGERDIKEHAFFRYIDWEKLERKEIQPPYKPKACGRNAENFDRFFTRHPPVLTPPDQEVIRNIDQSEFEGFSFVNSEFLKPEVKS
T5 sequence (P07948 whole entry, species assumed): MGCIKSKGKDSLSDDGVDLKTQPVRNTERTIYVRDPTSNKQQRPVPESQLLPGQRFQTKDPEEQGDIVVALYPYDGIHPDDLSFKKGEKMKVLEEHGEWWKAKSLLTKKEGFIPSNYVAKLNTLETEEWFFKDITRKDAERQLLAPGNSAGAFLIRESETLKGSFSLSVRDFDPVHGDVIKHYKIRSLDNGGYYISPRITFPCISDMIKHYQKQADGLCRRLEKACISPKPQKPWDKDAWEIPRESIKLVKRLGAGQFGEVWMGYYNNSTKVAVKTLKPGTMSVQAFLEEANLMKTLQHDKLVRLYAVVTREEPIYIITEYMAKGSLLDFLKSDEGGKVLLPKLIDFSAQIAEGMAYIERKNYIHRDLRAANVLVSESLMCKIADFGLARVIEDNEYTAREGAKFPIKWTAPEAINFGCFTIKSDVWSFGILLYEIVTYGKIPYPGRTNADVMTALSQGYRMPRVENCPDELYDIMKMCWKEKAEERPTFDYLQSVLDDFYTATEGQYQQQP

CC(C)(C)OC(=O)C#CC(=O)NC1CCCCC1 [AC1]
leukemic cells surviving ([1]; 100 nM): 50%
control cells surviving (32D cells): 100%

COC(=O)C#CC(=O)Nc1ccc(OC)cc1 [AC3]
activity (death of 32D-bcr-abl cells) [1]: decreased activity and selectivity dramatically
selectivity (32D-bcr-abl over control cells) [1]: decreased activity and selectivity dramatically

COC(=O)C#CC(=O)Nc1ccccc1 [AC6]
activity (death of 32D-bcr-abl cells) [1]: increased both selectivity and activity
selectivity (32D-bcr-abl over control cells) [1]: increased both selectivity and activity

COC(=O)C#CC(=O)Nc1c(F)cccc1F [AC9]
activity (death of 32D-bcr-abl cells) [1]: inactive

COC(=O)C#CC(=O)Nc1c(C(C)C)cccc1C(C)C [AC10]
activity (death of 32D-bcr-abl cells) [1]: moderate activity
selectivity (32D-bcr-abl over control cells) [1]: no selectivity

COC(=O)C#CC1CCCCC1 [AC11]
activity (death of 32D-bcr-abl cells) [1]: little or no activity

COC(=O)C#CC(=O)NCc1ccccc1 [AC13]
activity (death of 32D-bcr-abl cells) [1]: active
selectivity (32D-bcr-abl over control cells) [1]: little selectivity

COC(=O)C#CC(=O)Nc1cccc(OC)c1 [AC15]
activity ([1]; 1 uM level): activity was regained
selectivity ([1]; 1 uM level): selectivity remained low

COC(=O)C#CC(=O)Nc1ccccc1OC [AC16]
activity ([1]; 1 uM level): activity was regained
selectivity ([1]; 1 uM level): selectivity remained low

COC(=O)C#CC(=O)Nc1cc(OC)cc(OC)c1 [AC17]
activity ([1]; 1 uM level): activity was regained
selectivity ([1]; 1 uM level): selectivity remained low

COC(=O)C#CC(=O)Nc1ccc2ccccc2c1 [AC19]
activity ([1]; 100 nM): excellent activity
selectivity ([1]; 100 nM): shows selectivity
concentration below which no activity was shown ([2]; NCI 60 cell lines): ≥ 10 µM
activity against carcinoma and model carcinoma cell lines [3]: good activity

COC(=O)C#CC(=O)Nc1ccc(-c2ccccc2)cc1 [AC21]
activity ([1]; 100 nM): excellent activity
selectivity ([1]; 100 nM): only AC19 shows selectivity

COC(=O)C#CC(=O)Nc1ccc(Oc2ccccc2)cc1 [AC22]
activity ([1]; 10 nM): not active
activity ([1]; 100 nM): excellent activity; also recorded: very active
selectivity ([1]; 100 nM): not selective
inhibition of the 32DtetP210bcrabl cell line [1]: inhibitory
inhibition at 0.01 µM ([1]; Mus musculus, 10 nanomolar of each drug, 32DtetP210bcrabl cell line, read-out: inhibition of P210bcrabl dependent cell growth): 10%
GI50 (leukemia cell lines): 2600 to 7300 nM
activity against carcinoma and model carcinoma cell lines [3]: good activity
inhibition at 10 µM (IKKBeta): 45%
inhibition at 10 µM (PKCy): 61%
inhibition at 10 µM (Fyn): 29%
% Inhibition at 10 μM (CaMKII): 40%
inhibition at 10 µM (CaMKIV): 64%
inhibition at 10 µM (Lyn): 98%
inhibition at 10 µM (CDK2/cyclinA): 50%
% Inhibition at 10 μM (CK1): (37) %
inhibition at 10 µM (PKCbII): 48%
inhibition of the 32Dtet cell line (32D cells; similar concentration (1 micromolar), in words): inhibits

COC(=O)C#CC(=O)NC1CCCCC1 [K1P]
leukemic cells surviving ([1]; 100 nM): 50%
inhibition of the 32DtetP210bcrabl cell line [1]: inhibitory
activity in the NCI cell lines ([2]; certain leukemia, colon cancer, melanoma, renal cancer cell lines and a breast cancer cell line, in words): enhanced activity
GI50 (leukemia cell lines): 800 to 5000 nM
activity against carcinoma and model carcinoma cell lines [3]: good activity
inhibition at 10 µM (Fyn): 49%
% Inhibition at 10 μM (CK1): 46%
inhibition at 10 µM (PKCbII): 35%
control cells surviving (32D cells): 100%
GI50 (renal cell lines): 2500 to 2700 nM

Cc1ccc(NC(=O)c2ccc(CN3CCN(C)CC3)cc2)cc1Nc1nccc(-c2cccnc2)n1 [STI-571, reference compound]
control cells alive (32D cells; 10 nM, in words): all the control cells are still alive
